Assay results from patent publication US11053204B2, “Pyrimidinyloxy benzene derivatives as herbicides” (FMC Corporation, priority 2015, dated 2021).

Assays:
Format in all cases: in vivo
rice (Oryza sativa) = assay: Test B flooded paddy test, plant response rating; conditions: 250 g ai/ha; Flood; scale of 0 to 100 where 0 is no effect and 100 is complete control; 13 to 15 days
Procedure, shortened: (§1)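 Pots were flooded to 3 cm above the soil surface at treatment, compound applied directly to the paddy water, and that depth held throughout. Plants were kept in a greenhouse for 13 to 15 days, then visually rated against untreated controls.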

[1] = test system: sedge, umbrella (small-flower umbrella sedge, Cyperus difformis); assay: Test B flooded paddy test, plant response rating; conditions: 250 g ai/ha; Flood; scale of 0 to 100 where 0 is no effect and 100 is complete control; 13 to 15 days
Procedure, shortened: as §1

[2] = test system: barnyardgrass (Echinochloa crus-galli); assay: Test B flooded paddy test, plant response rating; conditions: 250 g ai/ha; Flood; scale of 0 to 100 where 0 is no effect and 100 is complete control; 13 to 15 days
Procedure, shortened: as §1

[3] = test system: wild poinsettia (Euphorbia heterophylla); assay: Test C preemergence, plant response rating
[4] = test system: waterhemp (common waterhemp, Amaranthus rudis); assay: Test C preemergence, plant response rating; conditions: Preemergence
Procedure, shortened: (§2)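 Visual injury score, 0 = no effect, 100 = complete control, assigned against untreated controls after 13 to 15 d in the greenhouse. Compounds were applied in a surfactant-containing non-phytotoxic solvent mix, preemergence to seeded loam/sand or silt loam soil, or postemergence to 1- to 4-leaf plants (2 to 18 cm).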

[5] = test system: ryegrass, Italian (Italian ryegrass, Lolium multiflorum); assay: Test C preemergence, plant response rating; conditions: Preemergence
Procedure, shortened: as §2

[6] = test system: blackgrass (Alopecurus myosuroides); assay: Test C preemergence, plant response rating; conditions: Preemergence
Procedure, shortened: as §2

[7] = test system: lambsquarters (Chenopodium album); assay: Test C preemergence, plant response rating; conditions: Preemergence
Procedure, shortened: as §2

[8] = test system: ragweed (common ragweed, Ambrosia elatior); assay: Test C preemergence, plant response rating; conditions: Preemergence
Procedure, shortened: as §2

[9] = test system: oilseed rape (Brassica napus); assay: Test C preemergence, plant response rating; conditions: Preemergence
Procedure, shortened: as §2

[10] = test system: foxtail, giant (giant foxtail, Setaria faberii); assay: Test C preemergence, plant response rating; conditions: Preemergence
Procedure, shortened: as §2

[11] = test system: nutsedge, yellow (yellow nutsedge, Cyperus esculentus); assay: Test C preemergence, plant response rating; conditions: Preemergence
Procedure, shortened: as §2

soybean (Glycine max) = assay: Test C preemergence, plant response rating; conditions: Preemergence
Procedure, shortened: as §2

[12] = test system: morningglory (Ipomoea coccinea); assay: Test C preemergence, plant response rating; conditions: Preemergence
Procedure, shortened: as §2

[13] = test system: velvetleaf (Abutilon theophrasti); assay: Test C preemergence, plant response rating; conditions: Preemergence
Procedure, shortened: as §2

corn (Zea mays) = assay: Test C preemergence, plant response rating; conditions: Preemergence
Procedure, shortened: as §2

[14] = test system: wheat (winter wheat, Triticum aestivum); assay: Test C preemergence, plant response rating; conditions: Preemergence
Procedure, shortened: as §2

[15] = test system: crabgrass, large (large crabgrass, Digitaria sanguinalis); assay: Test C preemergence, plant response rating; conditions: Preemergence
Procedure, shortened: as §2

[16] = test system: surinam grass (Brachiaria decumbens); assay: Test C preemergence, plant response rating
[17] = test system: oat, wild (wild oat Avena fatua); assay: Test C preemergence, plant response rating

CCCCC(=O)c1c(Oc2ncc(Cl)cn2)cccc1C(F)(F)F [Compound 130]
Plant response rating, Rice (rice (Oryza sativa)): 35 | Plant response rating, Sedge, Umbrella [1]: 98 | Plant response rating, Barnyardgrass [2]: 55 | Plant response rating, Poinsettia, Wild ([3]; 31 g ai/ha, scale 0 to 100): 0 | Plant response rating, Poinsettia, Wild ([3]; 62 g ai/ha, scale 0 to 100): 10 | Plant response rating, Poinsettia, Wild ([3]; 125 g ai/ha, scale of 0 to 100): 45 | Plant response rating, Waterhemp ([4]; 125 g ai/ha, scale of 0 to 100): 100 | Plant response rating, Waterhemp ([4]; 31 g ai/ha, scale 0 to 100): 100 | Plant response rating, Waterhemp ([4]; 62 g ai/ha, scale 0 to 100): 100 | Plant response rating, Ryegrass, Italian ([5]; 125 g ai/ha, scale of 0 to 100): 70 | Plant response rating, Ryegrass, Italian ([5]; 31 g ai/ha, scale 0 to 100): 35 | Plant response rating, Ryegrass, Italian ([5]; 62 g ai/ha, scale 0 to 100): 60 | Plant response rating, Blackgrass ([6]; 125 g ai/ha, scale of 0 to 100): 85 | Plant response rating, Blackgrass ([6]; 16 g ai/ha, scale 0 to 100): 30 | Plant response rating, Blackgrass ([6]; 31 g ai/ha, scale 0 to 100): 30 | Plant response rating, Blackgrass ([6]; 62 g ai/ha, scale 0 to 100): 60 | Plant response rating, Lambsquarters ([7]; 125 g ai/ha, scale of 0 to 100): 95 | Plant response rating, Lambsquarters ([7]; 31 g ai/ha, scale 0 to 100): 30 | Plant response rating, Lambsquarters ([7]; 62 g ai/ha, scale 0 to 100): 35 | Plant response rating, Ragweed ([8]; 125 g ai/ha, scale of 0 to 100): 10 | Plant response rating, Ragweed ([8]; 31 g ai/ha, scale 0 to 100): 0 | Plant response rating, Ragweed ([8]; 62 g ai/ha, scale 0 to 100): 5 | Plant response rating, Oilseed Rape ([9]; 125 g ai/ha, scale of 0 to 100): 95 | Plant response rating, Oilseed Rape ([9]; 31 g ai/ha, scale 0 to 100): 10 | Plant response rating, Oilseed Rape ([9]; 62 g ai/ha, scale 0 to 100): 40 | Plant response rating, Foxtail, Giant ([10]; 125 g ai/ha, scale of 0 to 100): 100 | Plant response rating, Foxtail, Giant ([10]; 31 g ai/ha, scale 0 to 100): 70 | Plant response rating, Foxtail, Giant ([10]; 62 g ai/ha, scale 0 to 100): 98 | Plant response rating, Nutsedge, Yellow ([11]; 125 g ai/ha, scale of 0 to 100): 0 | Plant response rating, Nutsedge, Yellow ([11]; 31 g ai/ha, scale 0 to 100): 0 | Plant response rating, Nutsedge, Yellow ([11]; 62 g ai/ha, scale 0 to 100): 0 | Plant response rating, Soybean (soybean (Glycine max); 125 g ai/ha, scale of 0 to 100): 30 | Plant response rating, Soybean (soybean (Glycine max); 31 g ai/ha, scale 0 to 100): 0 | Plant response rating, Soybean (soybean (Glycine max); 62 g ai/ha, scale 0 to 100): 10 | Plant response rating, Morningglory ([12]; 125 g ai/ha, scale of 0 to 100): 10 | Plant response rating, Morningglory ([12]; 31 g ai/ha, scale 0 to 100): 5 | Plant response rating, Morningglory ([12]; 62 g ai/ha, scale 0 to 100): 20 | Plant response rating, Velvetleaf ([13]; 125 g ai/ha, scale of 0 to 100): 85 | Plant response rating, Velvetleaf ([13]; 31 g ai/ha, scale 0 to 100): 10 | Plant response rating, Velvetleaf ([13]; 62 g ai/ha, scale 0 to 100): 75 | Plant response rating, Corn (corn (Zea mays); 125 g ai/ha, scale of 0 to 100): 25 | Plant response rating, Corn (corn (Zea mays); 16 g ai/ha, scale 0 to 100): 5 | Plant response rating, Corn (corn (Zea mays); 31 g ai/ha, scale 0 to 100): 0 | Plant response rating, Corn (corn (Zea mays); 62 g ai/ha, scale 0 to 100): 5 | Plant response rating, Wheat ([14]; 125 g ai/ha, scale of 0 to 100): 0 | Plant response rating, Wheat ([14]; 31 g ai/ha, scale 0 to 100): 0 | Plant response rating, Wheat ([14]; 62 g ai/ha, scale 0 to 100): 5 | Plant response rating, Crabgrass, Large ([15]; 125 g ai/ha, scale of 0 to 100): 100 | Plant response rating, Crabgrass, Large ([15]; 16 g ai/ha, scale 0 to 100): 98 | Plant response rating, Crabgrass, Large ([15]; 31 g ai/ha, scale 0 to 100): 100 | Plant response rating, Crabgrass, Large ([15]; 62 g ai/ha, scale 0 to 100): 100 | Plant response rating, Surinam Grass ([16]; 31 g ai/ha, scale 0 to 100): 50 | Plant response rating, Surinam Grass ([16]; 62 g ai/ha, scale 0 to 100): 65 | Plant response rating, Surinam Grass ([16]; 125 g ai/ha, scale of 0 to 100): 80 | Plant response rating, Oat, Wild ([17]; 31 g ai/ha, scale 0 to 100): 15 | Plant response rating, Oat, Wild ([17]; 62 g ai/ha, scale 0 to 100): 35 | Plant response rating, Oat, Wild ([17]; 125 g ai/ha, scale of 0 to 100): 60
